“And” between values parts separate entries of the source, which are not always exact repeats. Equal entries are not always repeated.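 Where inhibition never reached the appropriate level, the endpoint shown equals the highest concentration tested. Otherwise, values were interpolated linearly from a five-concentration, 48-hour dose response in 96-well plates. The concentration for 50% growth inhibition is given as GI50. TGI marks complete inhibition of growth.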 A value given as a limit tells only on which side of the number the result lay.

Consider eight compounds from PubChem BioAssay (NCI).

Common to all, as to experiment: inhibition of tumour cell growth, NCI panel, 48 h
Assay [1] deals with RPMI-8226 leukemia.
Assay [2] deals with SR leukemia.
The test system of assay [3] is CAKI-1 renal.
Assay [4] relates to T-47D breast.
Assay [5] relates to OVCAR-4 ovarian.
In assay [6] the test system is SN12C renal.
Assay [7] relates to ACHN renal.
Assay [8] has as its system SF-539 CNS.
For assay [9], the system named is HS 578T breast.
The test system of assay [10] is SW-620 colon.

Regarding `COC1/C=C\C=C(/C)C(=O)NC2=CC(=O)C(=O)C(=C2O)CC(C)CC(OC)C(O)C(C)/C=C(\C)C1OC(N)=O` (centres undefined), the TGI in [1] was 33.5 µM; in assay [2], 25 µM; in assay [3] it was more than 42 µM; in assay [4] it was 70.9 µM; in assay [5], 22.1 µM; in assay [6], 3.22 µM. The TGI in assay [7] was more than 82.1 µM; in [8], 22.5 µM; in assay [9], more than 100 µM; in assay [10], 18.3 µM.

With `FC(F)(F)c1cccc(Nc2nccc(-c3cnn4nc(-c5ccccc5)ccc34)n2)c1`, the GI50 in assay [1] was 12.9 µM; in [2] it was 2.15 µM; in assay [3], 10.2 µM; in assay [4], 8.33 µM; in [5] it was 5.18 µM; in [6] it was more than 13.5 µM. The GI50 is 6.71 µM in [7], 6.59 µM in assay [8], 7.38 µM in [9] and 8.65 µM in [10]. Besides, the TGI in assay [1] was more than 25 µM; in assay [2], more than 25 µM; in assay [3], more than 25 µM; in assay [4], more than 25 µM; in assay [5], 10.3 µM; in [6], more than 25 µM. Moreover, the TGI in assay [7] was more than 18 µM; in [8], more than 18.7 µM; in assay [9] it was more than 20.3 µM; in assay [10], more than 21.4 µM.

In the case of `O=C1Nc2c(C(F)(F)F)cccc2[C@]1(c1ccc(O)cc1)c1ccc(OC(F)(F)F)cc1`, the GI50 in assay [1] was 10.4 µM; in assay [2], 6.6 µM; in assay [3], 10.1 µM; in assay [4], 1.18 µM; in [5], 0.543 µM; in [6], 2.83 µM. For the same compound, the GI50 was 9.82 µM in assay [7], 14.4 µM in [8], 1.44 µM in [9] and 14.5 µM in assay [10]. Moreover, the TGI in assay [1] was determined as 59.1 µM; in [2], 39.8 µM; in assay [3], 22.7 µM; in [4], 17.9 µM; in assay [5], 5.23 µM; in assay [6] it was 12.3 µM. Moreover, the TGI in [7] was 21.5 µM; in [8], 27.6 µM; in assay [9], 5.89 µM; in assay [10], 32.2 µM.

`CC[C@@H]1C(=O)N(C)c2cnc(Nc3ccc(C(=O)NC4CCN(C)CC4)cc3OC)nc2N1C1CCCC1`: the GI50 in assay [1] was 0.0198 µM and 0.0395 µM; in [2], 0.00182 µM and < 0.01 µM; in [3], 0.297 µM and 0.476 µM; in assay [4], 0.0718 µM and 0.157 µM; in assay [5] it was 0.303 µM and 0.163 µM; in assay [6] it was 0.0233 µM and 0.039 µM. For the same compound, the GI50 in assay [7] was 0.148 µM and 0.0895 µM; in assay [8] it was 0.0269 µM and 0.0238 µM; in [9], 0.00842 µM and 0.0188 µM; in assay [10] it was 0.00299 µM and < 0.01 µM. The TGI in assay [1] was 1.69 µM and 1.91 µM; in assay [3], > 10 µM and 13.6 µM; in assay [4], > 10 µM and 6.27 µM; in [5], 9.87 µM and 4.4 µM; in assay [6], 4.32 µM and 14.1 µM; in [7], > 5.11 µM and 2.24 µM. Moreover, the TGI is 0.352 µM and 0.583 µM in assay [8]; 0.394 µM and 0.475 µM in assay [9]; > 10 µM and 3.1 µM in assay [10].

Regarding `CCN(CC)CCOc1ccc(/C(=C(\Cl)c2ccccc2)c2ccccc2)cc1`, the GI50 was 2.17 µM in [1]; 1.9 µM and 2.3 µM in [2]; 5.47 µM and 1.66 µM in [3]; 1.51 µM and 1.73 µM in [4]; 5.31 µM and 3.14 µM in [5]; 5.28 µM and 4.43 µM in assay [6]. In addition, the GI50 was 6.4 µM and 4.27 µM in assay [7]; 1.77 µM and 1.87 µM in assay [8]; 5.25 µM and 3.15 µM in [9]; 1.11 µM and 1.74 µM in assay [10]. Besides, the TGI in assay [1] was 6.98 µM; in assay [2], 9.16 µM and 8.36 µM; in [3], 12.3 µM and 5.48 µM; in assay [4] it was 9.55 µM and 12.9 µM; in assay [5], 11.3 µM and 11.6 µM; in assay [6], 11.9 µM and 16.5 µM. Besides, the TGI in assay [7] was 13.1 µM and 16.5 µM; in assay [8], 5.49 µM and 4.29 µM; in [9] it was 19.4 µM and 17.7 µM; in assay [10], 2.56 µM and 3.73 µM.

As for `Oc1ccc(NCc2nc3ccccc3[nH]2)cc1`, the GI50 in assay [1] is 72.8 µM; in [2] it was 53.8 µM; in [3], more than 100 µM; in assay [4], 31.2 µM; in [5], 28.7 µM; in assay [6] it was 61.4 µM. For the same compound, the GI50 in [7] was more than 100 µM; in assay [8], 51.7 µM; in assay [9] it was 15 µM; in assay [10], more than 100 µM. Further, the TGI in [1], in [2], in [3], in assay [4], in [5] and in assay [6] was more than 100 µM each time. Further, the TGI was more than 100 µM in assay [7], more than 100 µM in [8], 79.2 µM in assay [9] and more than 100 µM in assay [10].

Turning to `C=C1C(=O)O[C@H]2[C@H]1CC/C(COC(=O)c1ccc3ccccc3c1)=C\CC[C@@]1(C)O[C@@H]21`, the GI50 is 0.281 µM in assay [1]; 0.336 µM in assay [2]; 1.22 µM in assay [3]; 1.03 µM in assay [4]; 1.52 µM in [5]; 1.16 µM in [6]. In addition, the GI50 was 1.1 µM in assay [7], 0.838 µM in assay [8], 1.53 µM in [9] and 0.356 µM in assay [10]. The TGI was 0.869 µM in assay [1]; more than 26.8 µM in assay [2]; 2.46 µM in assay [3]; 2.73 µM in assay [4]; 3.32 µM in assay [5]; 2.87 µM in assay [6]. In addition, the TGI in assay [7] worked out at 2.32 µM; in [8] it was 2.23 µM; in [9], 4.51 µM; in assay [10], 1.39 µM.

Turning to `C=C1C(=O)O[C@H]2[C@H]1CC/C(Cn1cc(-c3ccc(OC)cc3)nn1)=C\CC[C@@]1(C)O[C@@H]21`, the GI50 in [1] is 1.87 µM; in assay [2], 0.257 µM; in assay [3], 1.03 µM; in assay [4], 1.43 µM; in [5], 1.52 µM; in [6], 1.96 µM. For the same compound, the GI50 in [7] is 0.293 µM; in [8] it was 0.346 µM; in assay [9] it was 7.42 µM; in assay [10] it was 0.498 µM. Also, the TGI was 5.15 µM in assay [1]; 1.48 µM in assay [2]; 3.63 µM in assay [3]; 3.08 µM in assay [4]; 3.33 µM in assay [5]; 5.27 µM in [6]. Moreover, the TGI in assay [7] was 1.12 µM; in [8] it was 1.49 µM; in assay [9] it was 36.9 µM; in assay [10] it was 1.74 µM.
